Source: ChEMBL document CHEMBL2375284, “Novel hybrids of natural isochroman-4-one bearing N-substituted isopropanolamine as potential antihypertensive candidates” (Bioorg Med Chem, 2013)

How the values were obtained:
Rattus norvegicus [1] = assay: Antihypertensive activity in rat spontaneous hypertensive model assessed as diastolic arterial blood pressure at 80 mg/kg, po measured at 6 hrs by tail-cuff method (reference value: 141.2 +/- 7.34 mmHg); type: functional, Artery
Rattus norvegicus [2] = assay: Toxicity in rat spontaneous hypertensive model assessed as heart rate at 80 mg/kg, po measured at 2 hrs by tail-cuff method (reference value: 399.5 +/- 19.68 bpm); type: organism-based; design: dose 80 mg/kg, route oral; conditions: in vivo
Rattus norvegicus [3] = assay: Antihypertensive activity in rat spontaneous hypertensive model assessed as mean arterial blood pressure at 80 mg/kg, po measured at 2 hrs by tail-cuff method (reference value: 157.41 +/- 9.62 mmHg); type: functional, Artery
Rattus norvegicus [4] = assay: Antihypertensive activity in rat spontaneous hypertensive model assessed as systolic arterial blood pressure at 80 mg/kg, po measured at 8 hrs by tail-cuff method (reference value: 174 +/- 12.1 mmHg); type: functional, Artery
Rattus norvegicus [5] = assay: Antihypertensive activity in rat spontaneous hypertensive model assessed as systolic arterial blood pressure at 80 mg/kg, po measured at 6 hrs by tail-cuff method (reference value: 176.7 +/- 15.21 mmHg); type: functional, Artery
Rattus norvegicus [6] = assay: Antihypertensive activity in rat spontaneous hypertensive model assessed as diastolic arterial blood pressure at 80 mg/kg, po measured at 1 hr by tail-cuff method (reference value: 146.2 +/- 13.19 mmHg); type: functional, Artery
Rattus norvegicus [7] = assay: Toxicity in rat spontaneous hypertensive model assessed as heart rate at 80 mg/kg, po measured at 8 hrs by tail-cuff method (reference value: 397.2 +/- 24.87 bpm); type: organism-based; design: dose 80 mg/kg, route oral; conditions: in vivo
Rattus norvegicus [8] = assay: Antihypertensive activity in rat spontaneous hypertensive model assessed as mean arterial blood pressure at 80 mg/kg, po measured at 0.5 hrs by tail-cuff method (reference value: 156.2 +/- 7.21 mmHg); type: functional, Artery
Rattus norvegicus [9] = assay: Antihypertensive activity in rat spontaneous hypertensive model assessed as systolic arterial blood pressure at 80 mg/kg, po measured at 2 hrs by tail-cuff method (reference value: 172.6 +/- 17.3 mmHg); type: functional, Artery
Rattus norvegicus [10] = assay: Antihypertensive activity in rat spontaneous hypertensive model assessed as systolic arterial blood pressure at 80 mg/kg, po measured at 0.5 hrs by tail-cuff method (reference value: 178.5 +/- 10.13 mmHg); type: functional, Artery
Rattus norvegicus [11] = assay: Antihypertensive activity in rat spontaneous hypertensive model assessed as mean arterial blood pressure at 80 mg/kg, po measured at 8 hrs by tail-cuff method (reference value: 155.8 +/- 11.54 mmHg); type: functional, Artery
Rattus norvegicus [12] = assay: Antihypertensive activity in rat spontaneous hypertensive model assessed as diastolic arterial blood pressure at 80 mg/kg, po measured at 4 hrs by tail-cuff method (reference value: 141.4 +/- 7.11 mmHg); type: functional, Artery
Rattus norvegicus [13] = assay: Antihypertensive activity in rat spontaneous hypertensive model assessed as diastolic arterial blood pressure at 80 mg/kg, po measured at 2 hrs by tail-cuff method (reference value: 142.9 +/- 18.07 mmHg); type: functional, Artery
Rattus norvegicus [14] = assay: Antihypertensive activity in rat spontaneous hypertensive model assessed as mean arterial blood pressure at 80 mg/kg, po measured at 4 hrs by tail-cuff method (reference value: 154.4 +/- 20.1 mmHg); type: functional, Artery
Rattus norvegicus [15] = assay: Antihypertensive activity in rat spontaneous hypertensive model assessed as systolic arterial blood pressure at 80 mg/kg, po measured at 4 hrs by tail-cuff method (reference value: 172.9 +/- 10.21 mmHg); type: functional, Artery
Rattus norvegicus [16] = assay: Toxicity in rat spontaneous hypertensive model assessed as heart rate at 80 mg/kg, po measured at 1 hr by tail-cuff method (reference value: 403.9 +/- 12.41 bpm); type: organism-based; design: dose 80 mg/kg, route oral; conditions: in vivo
Rattus norvegicus [17] = assay: Toxicity in rat spontaneous hypertensive model assessed as heart rate at 80 mg/kg, po measured at 0.5 hrs by tail-cuff method (reference value: 406.5 +/- 13.15 bpm); type: organism-based; design: dose 80 mg/kg, route oral; conditions: in vivo
Rattus norvegicus [18] = assay: Antihypertensive activity in rat spontaneous hypertensive model assessed as diastolic arterial blood pressure at 80 mg/kg, po measured at 0.5 hrs by tail-cuff method (reference value: 138.7 +/- 9.2 mmHg); type: functional, Artery
Rattus norvegicus [19] = assay: Antihypertensive activity in rat spontaneous hypertensive model assessed as systolic arterial blood pressure at 80 mg/kg, po measured at 1 hr by tail-cuff method (reference value: 181.2 +/- 16.37 mmHg); type: functional, Artery
Rattus norvegicus [20] = assay: Antihypertensive activity in rat spontaneous hypertensive model assessed as diastolic arterial blood pressure at 80 mg/kg, po measured at 8 hrs by tail-cuff method (reference value: 135.3 +/- 8.21 mmHg); type: functional, Artery
Rattus norvegicus [21] = assay: Antihypertensive activity in rat spontaneous hypertensive model assessed as mean arterial blood pressure at 80 mg/kg, po measured at 1 hr by tail-cuff method (reference value: 158.9 +/- 13.65 mmHg); type: functional, Artery
Rattus norvegicus [22] = assay: Toxicity in rat spontaneous hypertensive model assessed as heart rate at 80 mg/kg, po measured at 6 hrs by tail-cuff method (reference value: 405.1 +/- 24 bpm); type: organism-based; design: dose 80 mg/kg, route oral; conditions: in vivo
Rattus norvegicus [23] = assay: Antihypertensive activity in rat spontaneous hypertensive model assessed as mean arterial blood pressure at 80 mg/kg, po measured at 6 hrs by tail-cuff method (reference value: 155.8 +/- 7.97 mmHg); type: functional, Artery
Rattus norvegicus [24] = assay: Toxicity in rat spontaneous hypertensive model assessed as heart rate at 80 mg/kg, po measured at 4 hrs by tail-cuff method (reference value: 403.1 +/- 15.92 bpm); type: organism-based; design: dose 80 mg/kg, route oral; conditions: in vivo

Structure (SMILES)	Activity (Rattus norvegicus [1])	Activity (Rattus norvegicus [2])	Activity (Rattus norvegicus [3])	Activity (Rattus norvegicus [4])	Activity (Rattus norvegicus [5])	Activity (Rattus norvegicus [6])	Activity (Rattus norvegicus [7])	Activity (Rattus norvegicus [8])	Activity (Rattus norvegicus [9])	Activity (Rattus norvegicus [10])	Activity (Rattus norvegicus [11])	Activity (Rattus norvegicus [12])	Activity (Rattus norvegicus [13])	Activity (Rattus norvegicus [14])	Activity (Rattus norvegicus [15])	Activity (Rattus norvegicus [16])	Activity (Rattus norvegicus [17])	Activity (Rattus norvegicus [18])	Activity (Rattus norvegicus [19])	Activity (Rattus norvegicus [20])	further results
COc1cc2c(cc1OCC(O)CNC(C)C)C(=O)C(C)OC2 (stereo not drawn)	99 mmHg	356.9 bpm	122.1 mmHg	162.6 mmHg	164.2 mmHg	113.9 mmHg	367.7 bpm	134 mmHg	165.7 mmHg	174.1 mmHg	124.2 mmHg	99.8 mmHg	101 mmHg	118.1 mmHg	166.6 mmHg	365.6 bpm	367 bpm	113.7 mmHg	164.5 mmHg	107.7 mmHg	Activity (Rattus norvegicus [21]): 128.8 mmHg; Activity (Rattus norvegicus [22]): 355.2 bpm; Activity (Rattus norvegicus [23]): 121 mmHg; Activity (Rattus norvegicus [24]): 358.5 bpm
COc1cc2c(cc1OCC(O)CNC(C)C)COC(C)C2=O (stereo not drawn)	91.4 mmHg	365.1 bpm	103.9 mmHg	158.3 mmHg	150.5 mmHg	102.8 mmHg	372.8 bpm	142.2 mmHg	152.8 mmHg	169.2 mmHg	119 mmHg	83 mmHg	84.1 mmHg	97.8 mmHg	141 mmHg	378.3 bpm	385.4 bpm	128.7 mmHg	160.9 mmHg	98 mmHg	Activity (Rattus norvegicus [21]): 123.1 mmHg; Activity (Rattus norvegicus [22]): 370 bpm; Activity (Rattus norvegicus [23]): 114 mmHg; Activity (Rattus norvegicus [24]): 361.4 bpm
